Assay results reported in US20260234115A1, “LIPID COMPOUNDS, COMPOSITIONS, AND USES THEREOF” (Liberate Bio, Inc., priority 2023, published 2026).
Marks after values point to notes of the source that are not given here.

What was measured:
[1] = Dynamic light scattering: LNP particle size and PDI; format: physicochemical; details: for PDI N/P:3 / Size (nm) N/P:3 / PDI N/P:6 / Size (nm) N/P:6: LNP
Method: (§1) Lipids and active ingredients (e.g., RNA, DNA, etc.) were assembled into LNPs using microfluidic mixing. An ethanol phase was prepared by solubilizing ionizable lipids (i.e., lipid compounds), phospholipids (e.g., DSPC), cholesterol, and PEG lipids in ethanol, at predetermined mol % ratios given in Table 2. An aqueous phase was prepared by diluting a nucleic acid cargo (e.g., firefly luciferase mRNA) in an acidified buffer (pH 4.0 citrate buffer, 50 mM). A chip with microfluidic mixing architecture (e.g., toroidal mixer) was used to mix the two phases at predetermined flow rate ratios (e.g., 9 ml/min for the aqueous phase and 3 ml/min for the ethanol phase). Resulting LNPs comprising the lipids and encapsulating the nucleic acid cargo were dialyzed against PBS pH 7.4 for 2 hours at room temperature in a 20 kDa MWCO dialysis membrane. Then, PBS was refreshed to continue dialysis overnight at 2-8 TC. Upon completion of the buffer exchange, LNPs were optionally concentrated using a ultracentrifugal unit with a 10-100 kDa MWCO membrane.
d. Dynamic Light Scattering
LNPs were diluted with PBS pH 7.4 to predetermined dilution ranges based on the process step and LNP concentration. Following mixing, the particle size and PDI were measured by a dynamic light scattering instrument.

[2] = Plate-based fluorescence (RiboGreen) assay: nucleic acid cargo content and encapsulation efficiency of LNPs; format: physicochemical; details: for EE (%) N/P:3 / EE (%) N/P:6: LNP
Method: as §1
c. Plate-Based Fluorescence (RiboGreen) Assay
Nucleic acid cargos in the LNPs were quantified by RiboGreen assay, against a nucleic acid standard curve. LNPs encapsulating nucleic acid cargo were mixed with 1× Tris-EDTA (TE) and 2% triton in TE, separately, to achieve dilutions required by the assay. Then, the samples were heated at 30° C. and vortexed at 300 rpm. Samples were plated into 96-well plates and RiboGreen reagent was added into each well. Following incubation in the dark, fluorescence was measured from the wells, and plotted against the standard curve. Nucleic acid concentration obtained from the Triton-treated samples were used for total cargo concentration quantification. Only TE diluted sample fluorescence values were used to determine the non-encapsulated (free) cargo, and their ratio was used to determine the encapsulation efficiency (EE %).

mouse organs = assay: In vivo activity screening in mice: organ mean total flux (p/s) of luciferase activity after injection of F2 LNP pools (Table 6, FIG. 7A-7C); details: Mouse 1, dose 0.3 mg/kg, luciferase mRNA
Method in brief: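 C57BL/6J mice given one tail-vein injection of pooled Formulation F2 LNPs carrying firefly luciferase mRNA (0.25-3 mg/kg) in PBS. At 4-6 h, s.c. D-luciferin given; organs imaged ex vivo by IVIS within 10-15 min, after saline cardiac perfusion. Mean total flux (p/s) per organ ROI.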

[3] = LNP compositions for in vivo mouse study, four formulations (F1-F4) of the lipid compound pooled, or pools of four compounds (sixteen compositions)
[4] = LNP compositions for in vivo mouse study, four formulations (F1-F4) pooled, or pools of four compounds
[5] = LNP compositions for Formulation F2 Study

| SMILES | Particle Size (nm) [1, 3] | PDI [1, 4] | PDI N/P:6 ([1]; Formulation F1, N/P 6) | Size (nm) N/P:6 ([1]; Formulation F1, N/P 6) | PDI N/P:6 ([1]; Formulation F2, N/P 6) | Size (nm) N/P:6 ([1]; Formulation F2, N/P 6) | PDI N/P:6 ([1]; Formulation F3, N/P 6) | Size (nm) N/P:6 ([1]; Formulation F3, N/P 6) | PDI N/P:6 ([1]; Formulation F4, N/P 6) | Size (nm) N/P:6 ([1]; Formulation F4, N/P 6) | EE % [2, 4] | mRNA Content [2, 4] | EE (%) N/P:6 ([2]; Formulation F1, N/P 6) | EE (%) N/P:6 ([2]; Formulation F2, N/P 6) | EE (%) N/P:6 ([2]; Formulation F3, N/P 6) | EE (%) N/P:6 ([2]; Formulation F4, N/P 6) | Organ Mean Total Flux Femur (mouse organs) | Organ Mean Total Flux Heart (mouse organs) | Organ Mean Total Flux Kidney (mouse organs) | Organ Mean Total Flux Liver (mouse organs) | also measured |
| --- | --- | --- | --- | --- | --- | --- | --- | --- | --- | --- | --- | --- | --- | --- | --- | --- | --- | --- | --- | --- | --- |
| CCCCCCCC/C=C\CCCCCCCC(=O)OCC(COC(=O)CCCCCCC/C=C\CCCCCCCC)(COC(=O)CCCCCCC/C=C\CCCCCCCC)COC(=O)CCC(CCCCCC)OC(=O)NCCN1CCCC1 (stereo not shown) [Compound 1, 2-((oleoyloxy)methyl)-2-(((4-(((2-(pyrrolidin-1-yl)ethyl)carbamoyl)oxy)decanoyl)oxy)methyl)propane-1,3-diyl dioleate] | 89.9 nm | 0.143 | 0.072 | 74 ± 1 nm | 0.069 | 89 ± 2 nm | 0.051 | 107 ± 3 nm | 0.151 | 58 ± 2 nm | 99% | 102.4 µg/mL | 100% | 100% | 100% | 100% | 0.8 p/s (×10^6) | 0.1 p/s (×10^6) | 0.1 p/s (×10^6) | 17.5 p/s (×10^6) | PDI N/P:3 ([1]; Formulation F1, N/P 3): 0.084; Size (nm) N/P:3 ([1]; Formulation F1, N/P 3): 85 ± 4 nm; PDI N/P:3 ([1]; Formulation F2, N/P 3): 0.052; Size (nm) N/P:3 ([1]; Formulation F2, N/P 3): 99 ± 2 nm; PDI N/P:3 ([1]; Formulation F3, N/P 3): 0.037; Size (nm) N/P:3 ([1]; Formulation F3, N/P 3): 136 ± 3 nm; PDI N/P:3 ([1]; Formulation F4, N/P 3): 0.153; Size (nm) N/P:3 ([1]; Formulation F4, N/P 3): 78 ± 1 nm; EE (%) N/P:3 ([2]; Formulation F1, N/P 3): 97%; EE (%) N/P:3 ([2]; Formulation F2, N/P 3): 98%; EE (%) N/P:3 ([2]; Formulation F3, N/P 3): 97%; EE (%) N/P:3 ([2]; Formulation F4, N/P 3): 98%; Organ Mean Total Flux Lung (mouse organs): 0.5 p/s (×10^6); Organ Mean Total Flux Muscle (mouse organs): 0.6 p/s (×10^6); Organ Mean Total Flux Pancreas (mouse organs): 0.2 p/s (×10^6); Organ Mean Total Flux Spleen (mouse organs): 1.7 p/s (×10^6) |
| CCCCC/C=C\C/C=C\CCCCCCCC(=O)OCC(COC(=O)CCCCCCC/C=C\C/C=C\CCCCC)(COC(=O)CCCCCCC/C=C\C/C=C\CCCCC)COC(=O)CCC(CCCCCC)OC(=O)NCCN1CCCC1 (stereo not shown) [Compound 2, 2-((((9Z,12Z)-octadeca-9,12-dienoyl)oxy)methyl)-2-(((4-(((2-(pyrrolidin-1-yl)ethyl)carbamoyl)oxy)decanoyl)oxy)methyl)propane-1,3-diyl (9Z,9′Z,12Z,12′Z)-bis(octadeca-9,12-dienoate)] | 82.3 nm | 0.11 | 0.16 | 75 ± 8 nm | 0.04 | 84 ± 1 nm | 0.04 | 91 ± 0 nm | 0.18 | 65 ± 2 nm | 96% | 86 µg/mL | 98% | 98% | 98% | 97% | 0.8 p/s (×10^6) | 0.2 p/s (×10^6) | 0.7 p/s (×10^6) | 99.8 p/s (×10^6) | Organ Mean Total Flux Lung (mouse organs): 2.6 p/s (×10^6); Organ Mean Total Flux Muscle (mouse organs): 0.5 p/s (×10^6); Organ Mean Total Flux Pancreas (mouse organs): 0.2 p/s (×10^6); Organ Mean Total Flux Spleen (mouse organs): 15.6 p/s (×10^6) |
| CCCCC/C=C\C/C=C\CCCCCCCC(=O)OCC(COC(=O)CCCCCCC/C=C\C/C=C\CCCCC)(COC(=O)CCC(CCCCCC)OC(=O)NCCN1CCCC1)COC(=O)CC12CC3CC(CC(C3)C1)C2 (stereo not shown) [Compound 5, [2-[[2-(1-adamantyl)acetyl]oxymethyl]-2-[[(9Z,12Z)-octadeca-9,12-dienoyl]oxymethyl]-3-[4-(2-pyrrolidin-1-ylethylcarbamoyloxy)decanoyloxy]propyl](9Z,12Z)-octadeca-9,12-dienoate] | 84.4 nm | 0.12 | 0.12 | 70 ± 0 nm | 0.08 | 88 ± 3 nm | 0.06 | 97 ± 3 nm | 0.16 | 66 ± 3 nm | 96% | 80 µg/mL | 98% | 96% | 98% | 99% | – | – | – | – | – |
| CCCCC/C=C\CCOC(=O)CCCCCC(=O)OCC(COC(=O)CCCCCCOC(=O)C(CCCC)CCCCCC)(COC(=O)CCCCCC(=O)OCC/C=C\CCCCC)COC(=O)CCC(CCCCCC)OC(=O)NCCN1CCCC1 (stereo not shown) [Compound 16, O7-[2-[7-(2-butyloctanoyloxy)heptanoyloxymethyl]-2-[[7-[(Z)-non-3-enoxy]-7-oxo-heptanoyl]oxymethyl]-3-[4-(2-pyrrolidin-1-ylethylcarbamoyloxy)decanoyloxy]propyl]O1-[(Z)-non-3-enyl]heptanedioate] | 82.6 nm | 0.125 | 0.14 | 73 ± 7 nm | 0.07 | 82 ± 2 nm | 0.04 | 92 ± 0 nm | 0.15 | 64 ± 0 nm | 96% | 84 µg/mL | 99% | 99% | 98% | 99% | – | – | – | – | – |
| CCCCCCC(CCC(=O)OCC(COC(=O)CCCCCCOC(=O)C(CCCC)CCCCCC)(COC(=O)CCCCCCOC(=O)C(CCCC)CCCCCC)COC(=O)CCCCCCOC(=O)C(CCCC)CCCCCC)OC(=O)NCCN1CCCC1 (stereo not shown) [Compound 18, [7-[2,2-bis[7-(2-butyloctanoyloxy)heptanoyloxymethyl]-3-[4-(2-pyrrolidin-1-ylethylcarbamoyloxy)decanoyloxy]propoxy]-7-oxo-heptyl]2-butyloctanoate] | 81.1 nm | 0.066 | 0.04 | 67 ± 1 nm | 0.02 | 78 ± 1 nm | 0.03 | 96 ± 2 nm | 0.05 | 65 ± 2 nm | 97% | 100 µg/mL | 99% | 99% | 99% | 99% | – | – | – | – | PDI [1, 5]: 0.059; Particle Size (nm) [1, 5]: 92.2 nm; EE % [2, 5]: 98% |
| CCCCCCCCOC(CCC(=O)OCC(COC(=O)CCCCCCOC(=O)C(CCCC)CCCCCC)(COC(=O)CCC(CCCCCC)OC(=O)NCCN1CCCC1)COC(=O)CCC(OCCCCCCCC)OCCCCCCCC)OCCCCCCCC (stereo not shown) [Compound 20, [7-[2,2-bis(4,4-dioctoxybutanoyloxymethyl)-3-[4-(2-pyrrolidin-1-ylethylcarbamoyloxy)decanoyloxy]propoxy]-7-oxo-heptyl]2-butyloctanoate] | 79 nm | 0.02 | 0.06 | 64 ± 1 nm | 0.03 | 76 ± 1 nm | 0.03 | 91 ± 2 nm | 0.05 | 61 ± 1 nm | 97% | 98 µg/mL | 100% | 100% | 100% | 100% | – | – | – | – | – |
